Source: ChEMBL document CHEMBL1201862, “PubChem BioAssay data set” (2004)
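1) Cells in 96-well plates. 2) Compound, 48 h, 5 concentrations. 3) Linear interpolation between surrounding doses. 4) Unreached endpoint = highest concentration. The concentration for 50% growth inhibition is given as GI50.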 The source made the active and inactive calls. Rule as the data show it: active = GI50 up to about 1.1 µM and inactive = higher.

Columns and labels:
Test in all cases: growth of human tumour cells (NCI), 48 h
DMS-273 = system: DMS-273
M19-MEL = system: M19-MEL
HOP-18 = system: HOP-18
KM-20L2 = system: KM-20L2
LXFL 529 = system: LXFL 529
DMS-114 = system: DMS-114
SNB-78 = system: SNB-78
XF498 = system: XF498
RXF 631 = system: RXF 631

Structure (SMILES) | GI50 (DMS-273) | GI50 (M19-MEL) | GI50 (HOP-18) | GI50 (KM-20L2) | GI50 (LXFL 529) | GI50 (DMS-114) | GI50 (SNB-78) | GI50 (XF498) | GI50 (RXF 631)
O=C(Cc1ccccc1)NN1C(=O)C(Cl)C1c1cccc([N+](=O)[O-])c1 (configuration not stated) | 36.5 µM (inactive) | 5.16 µM (inactive) | 31.3 µM (inactive) | > 83.4 µM (inactive) | 14.2 µM (inactive) | 28.5 µM (inactive) | > 71.8 µM (inactive) | 31.2 µM (inactive) | 
CCOC(=O)C(C)(c1c(C)[nH]c2ccccc12)c1c(C)[nH]c2ccccc12 | 14.1 µM (inactive) |  |  | 16.4 µM (inactive) | 51.4 µM (inactive) | 15.7 µM (inactive) | 17.5 µM (inactive) | 21.8 µM (inactive) | 
CC(O[Si](C)(C)C)C1C=CC(C)n2c(=O)n(-c3ccccc3)c(=O)n21 (configuration not stated) |  | > 100 µM (inactive) | > 100 µM (inactive) |  |  | > 100 µM (inactive) | > 100 µM (inactive) |  | 
CC(C)(C)C1=CC(=N/N=c2\scc(-c3ccccc3)n2-c2ccccc2)C=C(C(C)(C)C)C1=O | > 100 µM (inactive) | > 100 µM (inactive) | > 100 µM (inactive) | > 100 µM (inactive) | > 100 µM (inactive) | > 100 µM (inactive) | > 100 µM (inactive) | > 100 µM (inactive) | 
C=C1c2[nH]c3c([N+](=O)[O-])c(OC)ccc3c2CCN1C(C)=O | > 100 µM (inactive) |  |  | > 100 µM (inactive) | > 100 µM (inactive) | > 100 µM (inactive) | > 100 µM (inactive) |  | 
O=C1C(c2cnc3ccccc3n2)=C(O)c2ccccc21 | 0.281 µM (active) | > 100 µM (inactive) |  | > 100 µM (inactive) | > 100 µM (inactive) | > 100 µM (inactive) | > 100 µM (inactive) |  | > 100 µM (inactive)
O=C1Cc2c([nH]c3ccccc23)-c2ccccc2N1 [PAULLONE] | 31.1 µM (inactive) | 53.1 µM (inactive) | > 100 µM (inactive) | 21.4 µM (inactive) | 19.1 µM (inactive) |  | > 100 µM (inactive) | 31.6 µM (inactive) | 
COC1(OC)C2(Cl)C(Cl)=C(Cl)C1(Cl)C1C2C2CC1(C(=O)O)c1ccccc12 (configuration not stated) | 19 µM (inactive) | 18.9 µM (inactive) | 41.2 µM (inactive) | 24.2 µM (inactive) | 14.6 µM (inactive) | 17.5 µM (inactive) |  |  | 22.4 µM (inactive)
Cc1ccc(S(=O)(=O)N/N=C(/CC(=O)c2c(C)[n+]([O-])c3ccccc3[n+]2[O-])C(=O)Nc2ccccc2C)cc1 | > 100 µM (inactive) | > 100 µM (inactive) | > 100 µM (inactive) | > 100 µM (inactive) | > 100 µM (inactive) | > 100 µM (inactive) | > 100 µM (inactive) |  | 
N=C(N)NCCCC(Nc1c2ccccc2nc2ccccc12)C(=O)O (configuration not stated) | > 100 µM (inactive) | > 100 µM (inactive) |  | > 100 µM (inactive) | > 100 µM (inactive) |  |  |  | 75.3 µM (inactive)
COc1ccc2c(c1OC)C1=C(C2=O)c2cc3c(cc2CCN1)OCO3 | 24.2 µM (inactive) | 42.1 µM (inactive) | 52.5 µM (inactive) | 17.9 µM (inactive) | 33.1 µM (inactive) | 22.6 µM (inactive) | 89.7 µM (inactive) | 40.3 µM (inactive) | 
Cc1cccc2c1NC(c1c(C)[nH]c3ccccc13)C2 (configuration not stated) |  | > 100 µM (inactive) | > 100 µM (inactive) | > 100 µM (inactive) | > 100 µM (inactive) | 56.1 µM (inactive) |  | 51.9 µM (inactive) | > 100 µM (inactive)
Brc1ccccc2cc(-c3ccccc3)nc1-2 | 4.35 µM (inactive) |  | 3.78 µM (inactive) | 1.71 µM (inactive) | 1.73 µM (inactive) | 2.16 µM (inactive) | 2.85 µM (inactive) | 1.98 µM (inactive) | 11.9 µM (inactive)
Cc1ccc(NC(=O)C2C(=O)N(c3ccc(C)c(C)c3)C(=O)/C2=N/O)cc1C (configuration not stated) | > 100 µM (inactive) |  | > 100 µM (inactive) | > 100 µM (inactive) | > 100 µM (inactive) | > 100 µM (inactive) | > 100 µM (inactive) | > 100 µM (inactive) | > 100 µM (inactive)
CCCC12Cc3c(OC)ccc(OC)c3CC(Cc3c(OC)ccc(OC)c31)C2=O (configuration not stated) | > 100 µM (inactive) | > 100 µM (inactive) |  |  | 10.2 µM (inactive) | 34.8 µM (inactive) | > 100 µM (inactive) |  | 
COc1ccc(C2=NN(C(=O)COc3ccc(Cl)cc3)C(O)(c3ccc(Cl)cc3)C2)cc1 (configuration not stated) | > 100 µM (inactive) |  |  | > 100 µM (inactive) | > 100 µM (inactive) |  | 66.5 µM (inactive) | > 100 µM (inactive) | > 100 µM (inactive)
COc1ccc(/C=N/Nc2nc(-c3cc4oc(=O)n(C)c4cc3Cl)cs2)cc1OC | 11.9 µM (inactive) | 7.8 µM (inactive) | > 100 µM (inactive) | 15.7 µM (inactive) | 15.3 µM (inactive) | 5.87 µM (inactive) | 37.2 µM (inactive) | 10.7 µM (inactive) | 21 µM (inactive)
CCOc1cc[n+]([C-](C#N)C#N)cc1 | > 100 µM (inactive) | > 100 µM (inactive) |  | > 100 µM (inactive) | > 100 µM (inactive) | > 100 µM (inactive) | > 100 µM (inactive) | > 100 µM (inactive) | > 100 µM (inactive)
COC12OCCN(C)C1=CC(=O)C1(C)N=NCC12 (configuration not stated) | > 100 µM (inactive) | > 100 µM (inactive) | > 100 µM (inactive) |  | > 100 µM (inactive) | > 100 µM (inactive) | > 100 µM (inactive) |  | 
COC1C=CC23c4cc5c(cc4C(O)OC2CN(C)C3C1)OCO5 (configuration not stated) | 1.4 µM (inactive) | 1.52 µM (inactive) |  | 1.29 µM (inactive) | 1.45 µM (inactive) | 1.26 µM (inactive) |  |  | 
COc1cc(Nc2nc3ccc(C(F)(F)F)cc3nc2-c2ccccc2)cc(OC)c1OC | 12 µM (inactive) |  | < 0.01 µM (active) | 5.85 µM (inactive) | 23.1 µM (inactive) |  | > 100 µM (inactive) |  | 
CC(C)(C)C(=O)CC(=O)C(C)(C)C.CC(C)(C)C(=O)CC(=O)C(C)(C)C.[SiH4] | 0.446 µM (active) | 1.86 µM (inactive) | 2.36 µM (inactive) | 1.62 µM (inactive) | 1.56 µM (inactive) | 0.566 µM (active) |  | 0.519 µM (active) | 
O=C(NNc1ccccc1)/C(=C/c1ccc2c(c1)OCO2)NC(=O)c1ccccc1 | > 100 µM (inactive) |  | > 100 µM (inactive) | > 100 µM (inactive) | > 100 µM (inactive) |  | > 100 µM (inactive) | > 100 µM (inactive) | 
